Data on one compound can be found in patent US7863295B2, “Treatments for neuropathy” (Children's Medical Center Corporation, priority 2008, dated 2011).

Data set [1] has as its system GFAP-DN-erbB4 mice. Kind of data set: Electron microscopy / morphometric analysis of Remak bundles in GFAP-DN-erbB4 mice. It counts as in vivo, mouse. The following applies: 4-week topical treatment, 1.2 mM cream. The protocol: (§1) Preparation and Use of XIB4035. The cream containing XIB4035 (1.2 mM, Matrix Scientific, Columbia, S.C.) consisted of N-methyl-pyrrolidone (5%), isopropyl myristate (5%) and petroleum jelly (90%). Control cream had the same ingredients without XIB4035. Cream was applied twice daily to the hind paws of isoflurane anesthetized mice starting at P21 for a period of 9 days (for analysis of cell death in sciatic nerves) or 4 weeks (all other studies using GFAP-DN-erbB4). Treatment of RTX-induced neuropathy began at the time of RTX injection or 12 hours after RTX injection and proceeded twice daily for a period of one week.
(§2) Plastic Embedding and Electron Microscopy. Tissue was prepared as in (6). Briefly, mice were perfused intracardially with 2% paraformaldehyde, 2.5% gluteraldehyde and 0.03% picric acid in 0.1 M cacodylate buffer (pH 7.2). Tissue was post-fixed overnight at 4° C. and embedded in Epon. Ultrathin sections were cut, collected on cellodin-coated grids and stained using uranyl acetate and lead citrate. Photographs were taken using the Tecnai G^2 Spirit BioTWIN transmission electron microscope.

Data set [2] has as its target T1, GFR[…]1 GDNF receptor (Mus musculus, UniProt P97785).
T1 sequence (P97785 25-430): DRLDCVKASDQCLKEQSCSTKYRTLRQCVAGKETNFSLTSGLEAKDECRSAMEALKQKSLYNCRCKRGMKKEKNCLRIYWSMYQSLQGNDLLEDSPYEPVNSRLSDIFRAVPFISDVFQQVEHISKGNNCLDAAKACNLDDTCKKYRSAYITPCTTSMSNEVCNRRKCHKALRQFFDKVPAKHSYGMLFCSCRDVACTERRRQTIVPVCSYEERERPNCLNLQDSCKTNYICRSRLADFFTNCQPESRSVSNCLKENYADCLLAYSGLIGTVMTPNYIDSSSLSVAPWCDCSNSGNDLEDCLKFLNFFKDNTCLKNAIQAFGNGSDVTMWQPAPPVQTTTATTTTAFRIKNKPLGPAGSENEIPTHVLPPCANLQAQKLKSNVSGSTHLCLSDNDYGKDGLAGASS
Conditions: murine cells; reference 11; cited from earlier work.

Data set [3] relates to wild type mice. Kind of data set: Hot plate test (thermal nociception) in wild type mice treated topically with XIB4035 cream. Format: in vivo. Conditions: cream 1.2 mM on hind paws twice daily for 4 weeks from P21. The protocol:
(§3) We generated a cream containing XIB4035 (1.2 mM) and applied it directly to the hind paws of GFAP-DN-erbB4 and wild type mice twice daily for a period of 4 weeks starting at the time of weaning (P21). […] Thus, these experiments would test whether activation of Ret signaling has therapeutic effects after disease onset. To control for potential effects of the control cream, mice of both genotypes were treated in the same way with the base cream without the drug. Mice were tested for responses to noxious thermal stimulus prior to the initiation of treatment and every 7 days throughout the treatment period. […] Together, these findings indicate that topical treatment with XIB4035 preserves the ability of mice with SFN to respond to noxious heat stimulus without inducing hypersensitivity.
(§4) Animals and induction of neuropathy using RTX. Transgenic mouse lines used were as previously described (6, 8). Animals were kept in the animal facility with free access to food and water. Behavioral experiments were performed in a quiet environment at the same time of day. […] Paw withdrawal latency was measured as the time required for the mouse to visibly respond to the thermal stimulus, e.g. licking paws, lifting paws, or jumping off of the plate. […] The threshold was determined as the lowest force that evoked a visible withdrawal response. […]
In general terms: Thermal pain tests record how soon the animal reacts.

Data set [4] deals with GFAP-DN-erbB4 mice. Put plainly: Cell death detection (TUNEL) in sciatic nerves of GFAP-DN-erbB4 mice. It counts as in vivo, mouse. Conditions: sciatic nerve, topical cream 1.2 mM twice daily for 9 days from P21. As to the method: as §1
Cell Death Detection. Sciatic nerves were dissected from mice perfused with 4% paraformaldehyde in PBS and fixed overnight at 4° C. Nerves were embedded in OCT and 16 µm thick transverse sections were processed for TUNEL as follows. Sections were washed 3 times for 5 minutes with PBS followed by proteinase K digestion (0.02 U/mL) in 10 mM TRIS/HCl pH 7.5 for 30 minutes at 37° C. Digested sections were fixed with 4% paraformaldehyde at room temperature for 20 minutes followed by 3 washes in PBS for 5 minutes. Apoptotic nuclei were identified using the In Situ Cell Death Detection Kit (Roche). Nuclei were stained with DAPI and sections were mounted with Gel-Mount.

In data set [5] the test system is GFAP-DN-erbB4 and wild type mice. Kind of data set: Mechanical sensitivity (von Frey filaments) after topical XIB4035 cream. The following applies: all groups (GFAP-DN-erbB4 and wild type) after 4 weeks of topical treatment, 1.2 mM cream. It counts as in vivo. As to the method:
as §3, §4

Data set [6] relates to RTX-injected mice. Put plainly: Skin innervation in RTX-induced SFN. Conditions: topical cream 1.2 mM twice daily for one week. Format: in vivo, mouse. The source says:
(§5) As it is unlikely that SFN is always caused by glial dysfunction, we considered it necessary to test the effectiveness of XIB4035 treatment on SFN resulting from a different pathogenic mechanism. Therefore we tested the efficacy of our therapeutic approach in resiniferatoxin (RTX)-induced SFN (9). RTX-induced SFN involves intraperitoneal injection of an ultrapotent capsaicin analog that targets c-fiber terminals by binding to and activating TRPV1 channels resulting in calcium influx, which induces loss of skin innervation and loss of thermal nociception (9). After RTX injection, mice were either treated immediately with XIB4035 or treatment was delayed by 12 hours. Both treatment paradigms yielded similar results.
(§6) Furthermore, innervation of the skin was preserved as a result of XIB4035 treatment in RTX-injected mice. […] Both c-fiber area and the number of fibers per Remak bundle were improved by treatment with XIB4035 in RTX-induced SFN.
Preparation and Use of XIB4035. The cream containing XIB4035 (1.2 mM, Matrix Scientific, Columbia, S.C.) consisted of N-methyl-pyrrolidone (5%), isopropyl myristate (5%) and petroleum jelly (90%). Control cream had the same ingredients without XIB4035. […]

The target in data set [7] is T2, GFR[…]1 GDNF receptor (Homo sapiens, UniProt P56159).
T2 sequence (P56159 25-429): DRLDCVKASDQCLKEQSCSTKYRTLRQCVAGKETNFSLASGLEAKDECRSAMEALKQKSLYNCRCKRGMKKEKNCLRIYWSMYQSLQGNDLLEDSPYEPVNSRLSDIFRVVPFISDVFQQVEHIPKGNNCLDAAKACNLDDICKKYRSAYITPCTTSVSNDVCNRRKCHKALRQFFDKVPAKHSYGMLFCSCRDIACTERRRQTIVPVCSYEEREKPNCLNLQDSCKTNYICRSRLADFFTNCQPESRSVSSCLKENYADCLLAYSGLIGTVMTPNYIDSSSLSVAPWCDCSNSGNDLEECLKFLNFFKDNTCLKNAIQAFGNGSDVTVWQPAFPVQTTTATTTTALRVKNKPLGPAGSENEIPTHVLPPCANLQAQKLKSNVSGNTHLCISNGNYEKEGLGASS
Conditions: human cells; reference 11; cited from earlier work.

The subject of data set [8] is GFAP-DN-erbB4 mice. Put plainly: Footpad skin innervation (PGP9.5 immunohistochemistry) in GFAP-DN-erbB4 mice. It counts as in vivo, mouse. Conditions: 4-week topical treatment, 1.2 mM cream. As to the method:
as §1
(§7) Immunohistochemistry. Mice were anesthetized with 2.5% Avertin and footpad skin was removed and immersion fixed in 4% paraformaldehyde, 14% picric acid in 0.1 M phosphate buffer (pH 7.3) overnight at 4° C. and cryoprotected in 20% sucrose overnight at 4° C. Tissues were embedded in OCT and sectioned at 30 µm and stained as floating sections by washing 3 times for 5 minutes in PBS+0.1% Triton-X 100, blocked for 30 minutes in PBS+0.1% Triton-X 100+10% normal goat serum and then incubated, PGP9.5 rabbit polyclonal antibody (Ultraclone, 1:1000), overnight at 4° C. Sections were washed 3 times for 10 minutes in PBS+0.1% Triton-X 100 then incubated in donkey anti-rabbit Alexa-488 (Invitrogen) 1:300 for 2 hours at room temperature. […]

In data set [9] the test system is wild type mice. Kind of data set: Footpad skin innervation (PGP9.5 immunohistochemistry) in wild type mice. Format: in vivo, mouse. Conditions: 4-week topical treatment, 1.2 mM cream. The protocol: as §1, §7
For data set [10], the system named is GFAP-DN-erbB4 mice. Kind of data set: Hot plate test (thermal nociception) in GFAP-DN-erbB4 mice treated topically with XIB4035 cream. It counts as in vivo, mouse. The following applies: cream 1.2 mM on hind paws twice daily for 4 weeks from P21, vs control cream. As to the method:
as §3, §4

The subject of data set [11] is RTX-injected mice. Put plainly: Hot plate test in resiniferatoxin (RTX)-induced SFN. It counts as in vivo, mouse.
Description: as §5, §6
Animals and induction of neuropathy using RTX. Transgenic mouse lines used were as previously described (6, 8). Animals were kept in the animal facility with free access to food and water. […] Paw withdrawal latency was measured as the time required for the mouse to visibly respond to the thermal stimulus, e.g. licking paws, lifting paws, or jumping off of the plate. […] The threshold was determined as the lowest force that evoked a visible withdrawal response. […]

For data set [12], the system named is RTX-injected mice. Put plainly: Remak bundle structure (electron microscopy) in RTX-induced SFN. It counts as in vivo, mouse. Conditions: topical cream 1.2 mM twice daily for one week.
Description: as §5, §6, §1, §2

Regarding `CCN(CC)CCCC(C)Nc1cc(/C=C/c2ccccc2Cl)nc2cc(Cl)ccc12` (centres unmarked) [XIB4035, N4-{7-chloro-2-[(E)-2-(2-chloro-phenyl)-vinyl]-quinolin-4-yl}-N1,N1-diethyl-pentane-1,4-diamine], in the data set on GFAP-DN-erbB4 mice [1], the “degeneration of Remak bundles and c-fiber axons” value is “prevented the degeneration of Remak bundles and c-fiber axons”; the “number of c-fibers per Remak bundle (morphometric analysis)” value is on record as “preserved”; the “size of c-fiber axons (morphometric analysis)” value is listed as “preserved”. Moreover, the “activation of the Ret co-receptor by binding to the GDNF receptor” value at GFR[…]1 GDNF receptor [2] is listed as “activate the Ret co-receptor”. For the same compound, the “behavior in response to noxious thermal stimulus” value in the data set with wild type mice [3] is reported as “remained normal”. Further, in the data set with GFAP-DN-erbB4 mice [4], the NMSC apoptosis result is “significantly reduced”. Further, the “response thresholds to punctate mechanical stimuli (mechanoreception)” value in data set [5] is “no effect on mechanoreception”. The “innervation of the skin” value in the data set with RTX-injected mice [6] was “preserved”. On GFR[…]1 GDNF receptor [7], the “activation of the Ret co-receptor by binding to the GDNF receptor” value is “activate the Ret co-receptor”. Also, in the data set on GFAP-DN-erbB4 mice [8], the “sensory nerve terminals in the footpad skin” value was “prevented degeneration of sensory nerve terminals”. Besides, the “density of nerve terminals in skin” value in the data set with wild type mice [9] was “increased the density of nerve terminals”. In addition, the “thermal nociception (hot plate, response to noxious thermal stimulus)” value in the data set on GFAP-DN-erbB4 mice [10] is on record as “dramatic preservation of thermal nociception”. Besides, the thermal nociception entry in the data set with RTX-injected mice [11] (RTX model, cream 1.2 mM twice daily for one week, started at RTX injection or 12 hours later (similar results)) is reported as “greatly improved thermal nociception”. For the same compound, the “ability to respond to noxious heat (paw withdrawal latency)” value in the data set on RTX-injected mice [11] (RTX-injected mice, seven days after RTX, vs control cream) is recorded as “remarkable preservation of their ability to respond to noxious heat”. Further, in the data set on RTX-injected mice [12] (RTX-induced SFN), the c-fiber area result is listed as “improved” and the “number of fibers per Remak bundle” value is “improved”. In the data set with RTX-injected mice [12] (RTX-injected mice), the Remak bundle structure result was “significantly improved”.
